Assay results from patent US10457707B2, “Substituted urea depsipeptide analogs as activators of the CLPP endopeptidase” (priority 2015, dated 2019).
In brackets after ≈: the same amount, converted by molar mass. Like-named read-outs stand apart in the source and are kept apart here. *1 amine or outer side, *2 acyl side, *3 side chain or, on linkers, in order; H or OH if unused. Where a SMILES comes first, the peptide text is derived from it. Bridges are numbered along the chain shown (N, C = ends). [ ]: non-standard residue; d: D form. The star is where a group is joined. ξ: configuration not given here. Phe(3,5-F2) = N[C@@H](Cc1cc(F)cc(F)c1)C(=O)O; Morpholine(3S-CO) = O=C(O)[C@@H]1COCCN1; Pro(4R-Me) = C[C@H]1CN[C@H](C(=O)O)C1; Hyp = O=C(O)[C@@H]1C[C@@H](O)CN1; NH(4-Et-phenyl) = CCc1ccc(N*)cc1; NH(4-Me-phenyl) = Cc1ccc(N*)cc1; ξNMeThr = CNC(C(=O)O)[C@@H](C)O; aThr = C[C@H](O)[C@H](N)C(=O)O; Pip = O=C(O)[C@@H]1CCCCN1; X2 = CN1CCc2ccc(N*)cc21; X1 = N#Cc1cc(N*)ccc1F; CO = O=C([*:1])[*:2]

Experiments:
[1] = system: Streptococcus pyogenes, ATCC 700294; test: Minimal inhibitory concentration assay (microbroth dilution); format: cell-based
Summary of the method: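 CLSI broth microdilution: two-fold serial compound dilutions in appropriate broth, inoculated and incubated aerobically overnight at 37° C. MIC read visually as lowest concentration preventing bacterial growth.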

[2] = Cytotoxicity assay (CellTiter-Glo cell viability, 72 hours); format: cell-based; settings: African green monkey
Summary of the method: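 Vero cells, 5000/well, grown overnight at 37° C, 5% CO2 in DMEM with 10% FBS, then exposed to serial compound dilutions or DMSO for 72 hours. Viability read by CellTiter-Glo luminescence. IC50 from duplicate wells, reported as range over two independent experiments.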

Sa-ClpP = molecular target: T1, Sa-ClpP (Staphylococcus aureus, UniProt Q2G036); test: ADEP displacement fluorescence polarization assay (FP probe ADEP 2591); format: binding
T1 construct: made in house; host or cells: E. coli BL21(DE3)
T1 sequence (Q2G036 1-195): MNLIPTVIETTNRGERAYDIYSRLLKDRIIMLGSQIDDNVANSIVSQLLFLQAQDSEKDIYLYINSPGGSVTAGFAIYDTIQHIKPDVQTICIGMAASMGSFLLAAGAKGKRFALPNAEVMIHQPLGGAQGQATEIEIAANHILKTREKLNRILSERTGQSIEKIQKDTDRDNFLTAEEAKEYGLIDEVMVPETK
Summary of the method: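 Master mix of 15 μM S. aureus ClpP with 50 nM TAMRA-labelled ADEP 2591 probe in Tris-HCl pH 8.0, 2% DMSO, was pre-equilibrated 1 h, then incubated with compound 120 min at room temperature. Polarization (ex 530, em 579 nm) was normalized to 200 μM ADEP 2378 and DMSO controls; four-parameter fits, triplicate.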

[3] = Streptococcus pyogenes, ATCC700294; read-out: Minimal Inhibitory Concentrations S. pyogenes ATCC 700294
[4] = Streptococcus pyogenes, ATCC700294, read-out: Minimal Inhibitory Concentrations S. pyogenes ATCC 700294
[5] = Vero cells, 72 hours, growth inhibition, read-out: Cytotoxicity IC50

Row | SMILES | MIC [1, 3] | IC50 at 72 h [2] | IC50 (Sa-ClpP) | MIC [1, 4] | IC50 at 72 h [2, 5]
1 | CCc1ccc(NC(=O)N[C@@H](Cc2cc(F)cc(F)c2)C(=O)N[C@@H]2C(=O)N3C[C@H](O)C[C@H]3C(=O)N3CCOC[C@H]3C(=O)N[C@@H](C)C(=O)N3C[C@H](C)C[C@H]3C(=O)O[C@H]2C)cc1 [Compound 320, (S)-3-(3,5-difluorophenyl)-2-(3-(4-ethylphenyl)ureido)-N-((6aS,8R,12S,13S,15aS,17R,21S,23aS)-8-hydroxy-13,17,21-trimethyl-6,11,15,20,23-pentaoxooctadecahydro-6H,11H,15H-[1,4]oxazino[3,4-i]dipyrrolo[2,1-c:2′,1′-l][1]oxa[4,7,10,13]-tetraazacyclohexadecin-12-yl)propanamide] ({NH(4-Et-phenyl)-CO}-[Phe(3,5-F2)][aThr][Hyp][Morpholine(3S-CO)]A[Pro(4R-Me)]; ester 2-C) | 0.039 µM (≈ 0.0328 µg/mL) | > 100 µM | 7.48 ± 0.6 µM |  | 
2 | C[C@@H]1C[C@H]2C(=O)O[C@@H](C)[C@H](NC(=O)[C@H](Cc3cc(F)cc(F)c3)NC(=O)Nc3ccc4c(c3)N(C)CC4)C(=O)N3CCC[C@H]3C(=O)N3CCCC[C@H]3C(=O)N[C@@H](C)C(=O)N2C1 [Compound 321, (S)-3-(3,5-difluorophenyl)-2-(3-(1-methylindolin-6-yl)ureido)-N-((2R,6S,8aS,14aS,20S,21S,23aS)-2,6,21-trimethyl-5,8,14,19,23-pentaoxooctadecahydro-1H,5H,14H,19H-pyrido[2,1-i]dipyrrolo[2,1-c:2′,1′-l][1]oxa[4,7,10,13]tetraazacyclo-hexadecin-20-yl)propanamide] ({X2-CO}-[Phe(3,5-F2)][aThr]P[Pip]A[Pro(4R-Me)]; ester 2-C) |  |  | 8.23 ± 0.7 µM | 0.313 µM (≈ 0.266 µg/mL) | 1.39 ± 0.1 µM
3 | Cc1ccc(NC(=O)N[C@@H](Cc2cc(F)cc(F)c2)C(=O)N[C@H]2COC(=O)[C@@H]3C[C@@H](C)CN3C(=O)[C@H](C)NC(=O)C([C@@H](C)O)N(C)C(=O)[C@@H]3CCCN3C2=O)cc1 (stereo partly drawn) [Compound 322, (S)-3-(3,5-difluorophenyl)-N-((2R,6S,9R,11aS,17S,20aS)-9-((R)-1-hydroxyethyl)-2,6,10-trimethyl-5,8,11,16,20-pentaoxohexadecahydro-1H,5H,16H-dipyrrolo[2,1-c:2′,1′-l][1]oxa[4,7,10,13]tetraazacyclohexadecin-17-yl)-2-(3-(p-tolyl)ureido)propanamide] ({NH(4-Me-phenyl)-CO}-[Phe(3,5-F2)]SP[ξNMeThr]A[Pro(4R-Me)]; ester 2-C) |  |  | 8.54 ± 0.4 µM | 0.625 µM (≈ 0.499 µg/mL) | 47.8 ± 3.2 µM
4 | Cc1ccc(NC(=O)N[C@@H](Cc2cc(F)cc(F)c2)C(=O)N[C@H]2COC(=O)[C@@H]3C[C@@H](C)CN3C(=O)[C@H](C)NC(=O)C3CCCCN3C(=O)[C@@H]3C[C@@H](O)CN3C2=O)cc1 (stereo partly drawn) [Compound 323, (S)-3-(3,5-difluorophenyl)-N-((2R,6S,8aR,14aS,16R,20S,23aS)-16-hydroxy-2,6-dimethyl-5,8,14,19,23-pentaoxooctadecahydro-1H,5H,14H,19H-pyrido[2,1-i]dipyrrolo[2,1-c:2′,1′-l][1]oxa[4,7,10,13]tetraazacyclohexadecin-20-yl)-2-(3-(p-tolyl)ureido)propanamide] |  |  | 9.18 ± 0.4 µM | 0.156 µM (≈ 0.126 µg/mL) | > 100 µM
5 | C[C@@H]1C[C@H]2C(=O)O[C@@H](C)[C@H](NC(=O)[C@H](Cc3cc(F)cc(F)c3)NC(=O)Nc3ccc(F)c(C#N)c3)C(=O)N3CCC[C@H]3C(=O)N3CCCC[C@H]3C(=O)N[C@@H](C)C(=O)N2C1 [Compound 324, (S)-2-(3-(3-cyano-4-fluorophenyl)ureido)-3-(3,5-difluorophenyl)-N-((2R,6S,8aS,14aS,20S,21S,23aS)-2,6,21-trimethyl-5,8,14,19,23-pentaoxooctadecahydro-1H,5H,14H,19H-pyrido[2,1-i]dipyrrolo[2,1-c:2′,1′-l][1]oxa[4,7,10,13]tetraazacyclo-hexadecin-20-yl)propanamide] ({X1-CO}-[Phe(3,5-F2)][aThr]P[Pip]A[Pro(4R-Me)]; ester 2-C) | 1.25 µM (≈ 1.05 µg/mL) | 10.2 ± 0.5 µM | 7.93 ± 0.3 µM |  | 
